Reference: patent publication US7399319B2, “Dyeing composition comprising a dye chosen from styryl and imine dyes and methods for dyeing keratin fibers” (L'Oreal S.A., priority 2005, dated 2008)

Assay: Shampoo-fastness test on dyed locks
Method: A shampoo-fastness test was performed on the locks of hair dyed with dyes 1 and 2 obtained under the conditions described above. The dyed locks were subjected to 20 shampoo washes according to a cycle comprising wetting the locks with water, washing with shampoo, rinsing with water, and then drying.
The degradation of the color after x shampoo washes was estimated according to the following formula:
[formula] [formula] [formula] [formula] [formula] wherein a*ctrl, b*ctrl, and L*ctrl are the values of a*, b*, and L* of the non-dyed lock; a*dyed, b*dyed, and L*dyed are the values of a*, b*, and L* of the dyed lock before shampooing, whereas a*xSh, b*xSh, and L*xSh are the values of a*, b*, and L* of the dyed lock after x shampoo washes.

[1] = permanent-waved lock, after 5 shampoo washes
[2] = permanent-waved lock, after 12 shampoo washes
[3] = permanent-waved lock, after 18 shampoo washes
[4] = permanent-waved lock, after 20 shampoo washes

| SMILES | % degradation (natural lock, after 5 shampoo washes) | % degradation (natural lock, after 12 shampoo washes) | % degradation (natural lock, after 18 shampoo washes) | % degradation (natural lock, after 20 shampoo washes) | % degradation [1] | % degradation [2] | % degradation [3] | % degradation [4] |
| --- | --- | --- | --- | --- | --- | --- | --- | --- |
| CN(C)c1ccc(C=CC=CC23OCCN2c2ccccc2C3(C)C)cc1 (stereo not drawn) [Dye 2] | 4% | 14% | 18% | 20% | 6% | 6% | 7% | 11% |
| CN(C)c1ccc(C=CC23OCCN2c2ccccc2C3(C)C)cc1 (stereo not drawn) [Dye 1] |  |  |  |  | 10% | 17% | 18% | 24% |
